Assay results published in PMC4213378, “Pharmacokinetics and Efficacy of the Spleen Tyrosine Kinase Inhibitor R406 after Ocular Delivery for Retinoblastoma” (Pharmaceutical Research, 2014).
Values after ≈ are worked out from the molar mass of the structure shown.

What was measured:
[1] = tested on: human orthotopic retinoblastoma xenografts; parameters: method as in PMID 22237022; conditions: cited from earlier work
retinoblastoma cells = tested on: retinoblastoma cells; parameters: method as in PMID 22237022; conditions: cited from earlier work
[2] = Intraocular and plasma R406 after topical administration (eye drops); format: in vivo, mouse; conditions: mice; for R406 levels in the eye at 0.5 h post dosing / R406 levels in the eye at 1 h post dosing / drug in plasma samples: single topical dose; for R406 levels in the eye at 0.5 h post dosing / R406 levels in the eye at 1 h post dosing: drops, 2 μL of 25 mM suspension in 5% HPβCD; for drug in plasma samples: data not shown
Protocol: (§1) For oral delivery of R788, the target dose of 25 mg/kg R788 was administered by oral gavage as a 4 mM solution in 0.01 N citrate buffer, pH 6 ([9]). For subconjunctival administration, R788 was prepared at a concentration of 4 mM in 2% PEG-800 and filtered through a 0.22 μm filter prior to use (see Table S1). R788 was also administered subconjunctivally as a suspension at a concentration of 25 mM in 10% 2-hydroxylpropyl-β-cyclodextrin (HPβCD, Sigma-Aldrich). For subconjunctival administration, R406 phenylsulfonate salt was administered at a concentration of 800–900 μM as a cosolvent solution in a formulation of 5% Cremaphor-eL, 0.5% ethanol, 0.2% Tween 80 and 94.3% PBS, filtered through a 0.22 μm filter prior to use (see Table S2). R406 phenylsulfonate salt was also administered subconjunctivally at a dose of 31.4 mM solution in DMSO. R406 free base was administered subconjunctivally at a concentration of 6.5 mM as a 25% castor oil (Sigma-Aldrich) emulsion. This emulsion was prepared by mixing castor oil: ethanol (1:1) solution of R406 (approx. 35 mM), in vacuo evaporation of the ethanol, and centrifugation to remove any excess R406, then emulsifying the R406 oil phase in an aqueous phase comprised of Cremaphor-eL, Tween 80 and PBS (final composition of the emulsion: 25% castor oil, 5% Cremaphor-eL, 0.2% Tween-80, 69.8% PBS) by probe sonication. For intravitreal injection, R788 solution was prepared by filtering a 0.12 mM (120 μM) solution of R788 in saline through a 0.22 μm filter. […] For topical delivery, 25–30 mM suspensions were prepared in 5% HPβCD. R406 or R788 concentration in all formulations was determined by UPLC prior to study (in cases where formulation was filtered before administration, concentration was determined post-filtering) Table I.
(§2) For the systemic delivery study R788 was administered as a single bolus dose (25 mg/kg, 10 mL/kg volume) by oral gavage. For the subconjunctival administration study R788 or R406 (10 µL of formulation) was injected into the subconjunctival space of an anesthetized mouse using a Hamilton microliter syringe (Hamilton company, Reno NV). For the intravitreal administration study, R788 (5 μL of […] in saline) was administered to each eye via direct injection. To perform the intravitreal injection, mice were anesthetized, a small incision between the sclera and the cornea was created with a […] needle, and the R788 was injected into the vitreous using a Hamilton microliter syringe. For the topical administration study, R406 (2 μL of 25–30 mM suspension) was applied as a drop to the surface of each eye of an anesthetized mouse.
(§3) At serial time points (0.5, 1, 2, 4, and 8 h post-injection, n = 3 for each time point), blood was collected by terminal cardiac puncture after isoflurane anesthesia. Whole-blood samples were centrifuged immediately at 10,000×g for 5 min at 4°C to separate plasma. Once the cardiac puncture and blood collection was completed, the animal was perfused with 10 mL of saline and euthanized by cervical dislocation. Eyes were removed, rinsed in PBS, gently patted dry, then rinsed and dried again. Eyes were dissected and vitreous was collected. Plasma and vitreous samples were put on dry ice immediately after collection and stored at −80°C until analysis. For quantitative analysis methods and assay validation methods and results, see Supplementary Information.
To evaluate the topical route for R406 delivery, we tested the intraocular concentration after a single topical dose of R406 free base or an R406 […] salt.

[3] = Concentration and stability of R406 in castor oil and castor oil emulsion; format: physicochemical
Protocol: as §1
An emulsion of 30% castor oil, 5% Cremaphor, 4% T80, 61% PBS was prepared and samples were stored at 4 °C and room temperature (25 °C). Samples were diluted and OD600 for each dilution was measured in triplicate on the day of emulsion preparation (storage time = 0 days) and after 6 days of storage. OD600 was measured using a black Costar clear bottom plate and a Spectramax plate reader.
For storage stability in emulsion, n =4.

[4] = Plasma pharmacokinetics after oral or subconjunctival administration; format: in vivo, mouse; conditions: local (subconjunctival), castor oil emulsion 6.5 mM, 65 nmol per eye; mice
Protocol: as §1, §2, §3
(§4) Plasma and vitreous concentration time data were analyzed using non-compartmental analysis in WinNonlin 6.2 (Pharsight, Mountain View, CA), providing PK parameters including Cmax (maximum observed concentration), Tmax (time to reach maximum observed concentration), AUC (area under the concentration time curve) and MRT (mean residence time). AUC and AUMC (area under the concentration time first moment curve) values were estimated with the linear trapezoidal method, with parameters calculated using mean concentration values at each time point. […]

[5] = Crashing upon dilution of DMSO stock in PBS; format: physicochemical
Source text: Supplement 11095_2014_1399_MOESM1_ESM.docx, table 14: Table S14. R406 phenylsulfonate salt and free base crashing upon dilution of DMSO stock in PBS | column: Measured Concentration

[6] = Maximum solubility in PBS or saline; format: physicochemical
[7] = Vitreous pharmacokinetics after oral or subconjunctival administration; format: in vivo, mouse; conditions: local (subconjunctival), castor oil emulsion 6.5 mM, 65 nmol per eye, mice
Protocol: as §1, §2, §3, §4

[8] = Co-solvent solution formulation solubility matrix; format: physicochemical; conditions: read-out: R788 Solubility
[9] = Vitreous and plasma R406 after intravitreal injection of R788; format: in vivo, mouse; conditions: intravitreal injection of R788 in saline, 5 μL per eye of 120 μM; mice
Protocol: For oral delivery of R788, the target dose of 25 mg/kg R788 was administered by oral gavage as a 4 mM solution in 0.01 N citrate buffer, pH 6 ([9]). For subconjunctival administration, R788 was prepared at a concentration of 4 mM in 2% PEG-800 and filtered through a 0.22 μm filter prior to use (see Table S1). R788 was also administered subconjunctivally as a suspension at a concentration of 25 mM in 10% 2-hydroxylpropyl-β-cyclodextrin (HPβCD, Sigma-Aldrich). For subconjunctival administration, R406 phenylsulfonate salt was administered at a concentration of 800–900 μM as a cosolvent solution in a formulation of 5% Cremaphor-eL, 0.5% ethanol, 0.2% Tween 80 and 94.3% PBS, filtered through a 0.22 μm filter prior to use (see Table S2). R406 phenylsulfonate salt was also administered subconjunctivally at a dose of 31.4 mM solution in DMSO. […] R406 or R788 concentration in all formulations was determined by UPLC prior to study (in cases where formulation was filtered before administration, concentration was determined post-filtering) Table I. […]
At serial time points (0.5, 1, 2, 4, and 8 h post-injection, n = 3 for each time point), blood was collected by terminal cardiac puncture after isoflurane anesthesia. […] For quantitative analysis methods and assay validation methods and results, see Supplementary Information.

[10] = Bioconversion of R788 to R406 in mouse vitreous; format: in vitro ADME; conditions: extracted mouse vitreous, 37°C, initial 25 μM R788, within 2 h
Protocol: Conversion of R788 to R406 was examined in freshly harvested murine vitreous, 2 U/mL bovine alkaline phosphatase in PBS (positive control), or plain PBS (no enzyme, negative control) at 37°C using a modified version of previously described phosphate prodrug conversion protocols ([9], [12]). Alkaline phosphatase (ALP) from bovine intestinal mucosa was obtained from Invitrogen and was reconstituted and diluted according to the manufacturer’s instructions. Vitreous was harvested from a mixed population of mice, pooled, and kept on ice for 1 - 2 h. The incubation media were pre-warmed to 37°C before the reaction was initiated by addition of 1 mM of R788 in saline (6 μL of R788 in saline into 234 μL of incubation media in a 1.5 mL Eppendorf tube). R788 was diluted into the incubation media at a 1:40 ratio (volume:volume) to mimic the dilution encountered during intravitreal injection in humans (typically 100 μL injection volume into 4–5 mL of human vitreous volume ([13], [14]). Initial estimated concentration of R788 was 25 μM. At the desired time points (0, 5, 10, 20, 30, 45, 60, and 120 min) an aliquot of 25 μl was collected from each incubation vial and transferred to a 1.5 mL Eppendorf tube, containing 25 μl of acetonitrile to terminate the reaction. 3 samples were tested per time point. Samples were stored at −80°C until quantification.

[11] = parameters: method as in PMID 21515735; conditions: subconjunctival administration; previous work; cited from earlier work
[12] = parameters: method as in PMID 21515735; conditions: previous work; cited from earlier work

COc1ccc(-c2cc3nccn3c(Nc3ncccc3C(N)=O)n2)cc1OC [BAY-61-3606]
blocking proliferation of human orthotopic retinoblastoma xenografts in vivo [1]: efficacious
induction of caspase-mediated cell death of retinoblastoma cells in vitro (retinoblastoma cells): can induce caspase-mediated cell death

COc1cc(Nc2ncc(F)c(Nc3ccc4c(n3)NC(=O)C(C)(C)O4)n2)cc(OC)c1OC [R406 free base]
R406 levels in the eye at 0.5 h post dosing [2]: 0.1 ± 0.06 µM
R406 levels in the eye at 1 h post dosing [2]: 0.1 ± 0.1 µM
drug in plasma samples [2]: No detectable drug
time stable in castor oil ([3]; room temperature): at least 6 days
average concentration remaining, % of the initial concentration ([3]; stored in castor oil at room temperature, after 6 days, n=3): 113.3%
Cmax [4]: 119 nM
Plasma AUClast [4]: 0.119 µM·h
Plasma Dose normalized AUC [4]: 0.9 nM∙h/nmol
Plasma Tlast [4]: 2 h
Plasma Tmax [4]: 0.5 h
Measured Concentration ([5]; DMSO stock diluted 1 in 10 in PBS prior to filtration (theoretical 1.11 mM)): 965 µM
Measured Concentration ([5]; DMSO stock diluted 1 in 10 in PBS, 0.22 micron filtered): 7 µM
Measured Concentration ([5]; DMSO stock diluted 1 in 20 in PBS, 0.22 micron filtered): 6 µM
Measured Concentration ([5]; DMSO stock, printed 'diluted 1 in 10 in PBS prior to filtration' (second such line, theoretical 557 µM)): 510 µM
solubility in PBS ([6]; PBS): insoluble (below the limit of quantitation)
Cmax [7]: 169 ± 35.9 nM
Vitreous AUClast [7]: 0.43 µM·h
Vitreous Dose normalized AUC [7]: 3.3 nM∙h/nmol
Vitreous MRT0-4h [7]: 2.19 h
Vitreous Tlast [7]: 4 h
Vitreous Tmax [7]: 0.5 h
Vitreous MRT0-4h ([7]; listed as R406 base): ≥ 2 h

CCCCCCCCCCCCCCCC(=O)O.COc1cc(Nc2ncc(F)c(Nc3ccc4c(n3)NC(=O)C(C)(C)O4)n2)cc(OC)c1OC [R406 palmitate salt]
R406 levels in the eye at 0.5 h post dosing [2]: 0.3 ± 0.3 µM
R406 levels in the eye at 1 h post dosing [2]: 0.3 ± 0.2 µM
drug in plasma samples [2]: No detectable drug
vitreous concentration of R406 ([2]; topical 40 mM R406 palmitate 5% cyclodextrin suspension, 1-4 hourly doses, sustained for 1.5 h after each application): 1 to 2 µM
Cmax ([2]; topical delivery in cyclodextrin drops, sustainable via repeated dosing, read-out: vitreous Cmax / intraocular concentration): > 1000 nM

COc1cc(Nc2ncc(F)c(Nc3ccc4c(n3)N(COP(=O)(O)O)C(=O)C(C)(C)O4)n2)cc(OC)c1OC [R788]
solubility ([8]; Trial 2: 2% PEG-8000, 98% PBS): 3560 µM (≈ 2070 µg/mL)
solubility ([8]; aqueous buffer, Trial 3: 0.5% EtOH, 99.5% PBS): 1010 µM (≈ 586 µg/mL)
solubility ([8]; aqueous buffer, Trial 4: 3% Glycerin, 97% PBS): 1130 µM (≈ 656 µg/mL)
solubility ([8]; aqueous buffer, Trial 9: 100% PBS): 1240 µM (≈ 720 µg/mL)
solubility ([8]; aqueous with cosolvent or surfactant or cyclodextrin, Trial 1: 0.1% Tyloxapol, 99.9% PBS): 1230 µM (≈ 714 µg/mL)
solubility ([8]; aqueous with cosolvent or surfactant or cyclodextrin, Trial 5: 5% Cremaphor-eL, 95% PBS): 1430 µM (≈ 830 µg/mL)
solubility ([8]; aqueous with cosolvent or surfactant or cyclodextrin, Trial 6: 10% PPG, 90% PBS): 1130 µM (≈ 656 µg/mL)
solubility ([8]; aqueous with cosolvent or surfactant or cyclodextrin, Trial 7: 15% pPPG, 85% PBS): 1530 µM (≈ 888 µg/mL)
solubility ([8]; aqueous with cosolvent or surfactant or cyclodextrin, Trial 8: 4% Tween-80, 96% PBS): 1710 µM (≈ 993 µg/mL)
solubility ([8]; aqueous with cosolvent or surfactant or cyclodextrin, Trial 10: 5% Cremaphor-eL, 4% Tween-80, 91% PBS): 1510 µM (≈ 877 µg/mL)
solubility ([8]; aqueous with cosolvent or surfactant or cyclodextrin, Trial 11: 15% pPPG, 4% Tween-80, 81% PBS): 1840 µM (≈ 1070 µg/mL)
solubility ([8]; aqueous with cosolvent or surfactant or cyclodextrin, Trial 12: 5% Cremaphor-eL, 15% pPPG, 80% PBS): 2150 µM (≈ 1250 µg/mL)
solubility ([8]; aqueous with cosolvent or surfactant or cyclodextrin, Trial 13: 5% Cremaphor-eL, 15% pPPG, 4% Tween-80, 76% PBS): 2640 µM (≈ 1530 µg/mL)
solubility ([8]; aqueous with cosolvent or surfactant or cyclodextrin, Trial 14: 2% PEG-8000, 5% Cremaphor-eL, 15% pPPG, 4% Tween-80, 74% PBS): 3470 µM (≈ 2010 µg/mL)
R406 levels in plasma samples [9]: BLOQ
conversion of R788 to R406 [10]: 100%
solubility ([6]; PBS, read-out: maximum solubility in PBS): 1400 µM (≈ 813 µg/mL)
solubility ([6]; saline, read-out: maximum solubility in saline): 1200 to 1400 µM (≈ 697 to 813 µg/mL)

COc1ccc(C2=N[C@@H](c3ccc(Cl)cc3)[C@@H](c3ccc(Cl)cc3)N2C(=O)N2CCNC(=O)C2)c(OC(C)C)c1 [nutlin-3a]
AUC ratio of vitreous to plasma [11]: 28.6
water solubility [12]: approximately 40 μM
